Laboratory results from US7803808B2, “Production of polyketides and other natural products” (Wyeth LLC, priority 2004, dated 2010).

Assays:
[1] = test system: mixed lymphocyte reaction; details: Nishida et al., 1995; cited from earlier work
fungi = details: compared to rapamycin, cited from earlier work; for antifungal activities: Wong et al., 1998
[2] = test system: LNCAP (prostate, PTEN negative) tumour cell line; experiment: Monolayer proliferation assay (modified propidium iodide), LNCAP; type: cell-based, human; details: 4 days incubation, mean of duplicate experiments
Method: (§1) In vitro evaluation of compounds for anticancer activity in a panel of 12 human tumour cell lines in a monolayer proliferation assay were carried out at the Oncotest Testing Facility, Institute for Experimental Oncology, Oncotest GmbH, Freiburg.
(§2) The Oncotest cell lines were established from human tumor xenografts as described by Roth et al. 1999. The origin of the donor xenografts was described by Fiebig et al. 1992. Other cell lines were either obtained from the NCI (H460, SF-268, OVCAR-3, DU145, MDA-MB-231, MDA-MB-468) or purchased from DSMZ, Braunschweig, Germany (LNCAP).
(§3) All cell lines, unless otherwise specified, are grown at 37° C. in a humidified atmosphere (95% air, 5% CO2) in a ‘ready-mix’ medium containing RPMI 1640 medium, 10% fetal calf serum, and 0.1 mg/mL gentamicin (PAA, Cölbe, Germany).
(§4) A modified propidium iodide assay was used to assess the effects of the test compound(s) on the growth of twelve human tumor cell lines (Dengler et al., 1995).
(§5) Briefly, cells were harvested from exponential phase cultures by trypsinization, counted and plated in 96 well flat-bottomed microtitre plates at a cell density dependent on the cell line (5-10.000 viable cells/well). After 24 h recovery to allow the cells to resume exponential growth, 0.01 mL of culture medium (6 control wells per plate) or culture medium containing 39-desmethoxyrapamycin were added to the wells. Each concentration was plated in triplicate. […] Following 4 days of continuous incubation, cell culture medium with or without 39-desmethoxyrapamycin was replaced by 0.2 mL of an aqueous propidium iodide (PI) solution (7 mg/L). To measure the proportion of living cells, cells were permeabilized by freezing the plates. After thawing the plates, fluorescence was measured using the Cytofluor 4000 microplate reader (excitation 530 nm, emission 620 nm), giving a direct relationship to the total number of viable cells.
(§6) Growth inhibition was expressed as treated/control×100 (% T/C) and are provided for a selection of cell lines. […]

[3] = test system: SF268 (SF-268, CNS) tumour cell line; experiment: Monolayer proliferation assay (modified propidium iodide), SF268; type: cell-based, human; details: 4 days incubation, mean of duplicate experiments
Method: as §1, §2, §3, §4
(§7) Briefly, cells were harvested from exponential phase cultures by trypsinization, counted and plated in 96 well flat-bottomed microtitre plates at a cell density dependent on the cell line (5-10.000 viable cells/well). After 24 h recovery to allow the cells to resume exponential growth, 0.01 mL of culture medium (6 control wells per plate) or culture medium containing 39-desmethoxyrapamycin were added to the wells. Each concentration was plated in triplicate. 39-Desmethoxyrapamycin was applied in two concentrations (0.001 mM and 0.01 mM). Following 4 days of continuous incubation, cell culture medium with or without 39-desmethoxyrapamycin was replaced by 0.2 mL of an aqueous propidium iodide (PI) solution (7 mg/L). To measure the proportion of living cells, cells were permeabilized by freezing the plates. After thawing the plates, fluorescence was measured using the Cytofluor 4000 microplate reader (excitation 530 nm, emission 620 nm), giving a direct relationship to the total number of viable cells.
as §6

[4] = test system: 394NL (MEXF 394NL, melanoma) tumour cell line; experiment: Monolayer proliferation assay (modified propidium iodide), 394NL; type: cell-based, human; details: 4 days incubation, mean of duplicate experiments
Method: as §1, §2, §3, §4, §5, §6

[5] = test system: panel of human tumour cell lines; experiment: Monolayer proliferation assay, mean across the cell line panel; type: cell-based; details: average across the cell lines tested; estimated from concentration versus cell viability
Method: as §1, §2, §3, §4, §7, §6

[6] = test system: H460 (NCl-H460, lung) tumour cell line; experiment: Monolayer proliferation assay (modified propidium iodide), H460; type: cell-based, human; details: 4 days incubation, mean of duplicate experiments
Method: as §1, §2, §3, §4, §7
Growth inhibition was expressed as treated/control×100 (% T/C) and are provided for a selection of cell lines. For active compounds, the average IC50 & IC70 values across the entire cell line panel examined were estimated by plotting compound concentration versus cell viability and are also provided.
In vitro evaluation of 17-desmethyl-39-desmethoxyrapamycin for anticancer activity in a panel of 12 human tumour cell lines in a monolayer proliferation assay was carried out as described above using a modified propidium iodide assay.

[7] = test system: DU145 (prostate, PTEN positive) tumour cell line; experiment: Monolayer proliferation assay (modified propidium iodide), DU145; type: cell-based, human; details: 4 days incubation, mean of duplicate experiments
Method: as §1, §2, §3, §4, §7, §6

[8] = test system: OVCAR3 (OVCAR-3, ovarian) tumour cell line; experiment: Monolayer proliferation assay (modified propidium iodide), OVCAR3; type: cell-based, human; details: 4 days incubation, mean of duplicate experiments
Method: as §1, §2, §3, §4, §7, §6

[9] = test system: 251L (GXF 251L, gastric) tumour cell line; experiment: Monolayer proliferation assay (modified propidium iodide), 251L; type: cell-based, human; details: 4 days incubation, mean of duplicate experiments
Method: as §1, §2, §3, §4, §5, §6

[10] = test system: 1138L (UXF 1138L, uterus) tumour cell line; experiment: Monolayer proliferation assay (modified propidium iodide), 1138L; type: cell-based, human; details: 4 days incubation, mean of duplicate experiments
Method: as §1, §2, §3, §4, §7, §6

[11] = test system: MCF7 (MCF-7, breast) tumour cell line; experiment: Monolayer proliferation assay (modified propidium iodide), MCF7; type: cell-based, human; details: 4 days incubation, mean of duplicate experiments
Method: as §1, §2, §3, §4, §7, §6

cell proliferation = details: compared to rapamycin; Khaw et al., 1998; cited from earlier work
murine splenic B cells = details: compared to rapamycin; Box et al., 1995; cited from earlier work
murine splenic T cells = details: compared to rapamycin; Box et al., 1995; cited from earlier work
FKBP12 PPlase = FKBP12 PPlase (Homo sapiens, UniProt P62942); details: compared to rapamycin; Box et al., 1995; cited from earlier work
Sequence of FKBP12 PPlase (P62942 whole entry): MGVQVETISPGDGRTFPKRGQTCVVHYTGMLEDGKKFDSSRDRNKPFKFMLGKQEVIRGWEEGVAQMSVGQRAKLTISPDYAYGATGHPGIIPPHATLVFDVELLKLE

## CO[C@H]1C[C@@H]2CC[C@@H](C)[C@](O)(CC(=O)N3CCCC[C@H]3C(=O)O[C@H]([C@H](C)C[C@@H]3CC[C@@H](O)[C@H](OC)C3)CC(=O)[C@H](C)/C=C(\C)[C@@H](O)[C@@H](OC)C(=O)[C@H](C)C[C@H](C)/C=C/C=C/C=C/1C)O2 [9-deoxorapamycin]
[1]
  mixed lymphocyte reaction (MLR) inhibitory activity: more significant decrease in activity

## CO[C@H]1C[C@@H]2CC[C@@H](C)[C@@](O)(O2)C(=O)C(=O)N2CCCC[C@H]2C(=O)O[C@H]([C@H](C)C[C@@H]2CC[C@@H](O)[C@H](OC)C2)CC(=O)[C@H](C)/C=C(\C)[C@@H](O)CC(=O)[C@H](C)C[C@H](C)/C=C/C=C/C=C/1C [27-desmethoxyrapamycin]
fungi
  antifungal activities: lower than that of rapamycin

## COC1CC2CCC(C)C(O)(O2)C(=O)C(=O)N2CCCC2C(=O)OC(C(C)CC2CCC(O)C(OC)C2)CC(=O)C(C)/C=C(\C)C(O)C(OC)C(=O)C(C)CC(C)/C=C/C=C/C=C/1C (stereo not shown) [prolylrapamycin]
fungi
  antifungal activities: lower than that of rapamycin

## CO[C@@H]1/C=C/C=C/C=C/[C@@H](C)C[C@@H](C)C(=O)[C@H](OC)[C@H](O)/C(C)=C/[C@@H](C)C(=O)C[C@@H]([C@H](C)C[C@H]2CC[C@H](O)CC2)OC(=O)[C@@H]2CCCCN2C(=O)C(=O)[C@]2(O)O[C@@H](CC[C@H]2C)C1 [17-desmethyl-39-desmethoxyrapamycin]
[2]; 1 μM
  Test/Control (%) at drug concentration: 59%
[2]; 10 μM
  Test/Control (%) at drug concentration: 43%
[2]; 100 μM
  Test/Control (%) at drug concentration: 15%
[3]; 1 μM
  Test/Control (%) at drug concentration: 57%
[3]; 10 μM
  Test/Control (%) at drug concentration: 37%
[3]; 100 μM
  Test/Control (%) at drug concentration: 4%
[4]; 1 μM
  Test/Control (%) at drug concentration: 66%
[4]; 10 μM
  Test/Control (%) at drug concentration: 61%
[4]; 100 μM
  Test/Control (%) at drug concentration: 4%
[5]
  IC50: 13.3 µM
  Mean IC70: 38.2 µM
[6]; 1 μM
  Test/Control (%) at drug concentration: 82%
[6]; 10 μM
  Test/Control (%) at drug concentration: 76%
[6]; 100 μM
  Test/Control (%) at drug concentration: 3%
[7]; 1 μM
  Test/Control (%) at drug concentration: 69%
[7]; 10 μM
  Test/Control (%) at drug concentration: 66%
[7]; 100 μM
  Test/Control (%) at drug concentration: 5%
[8]; 1 μM
  Test/Control (%) at drug concentration: 84%
[8]; 10 μM
  Test/Control (%) at drug concentration: 61%
[8]; 100 μM
  Test/Control (%) at drug concentration: 8%
[9]; 1 μM
  Test/Control (%) at drug concentration: 85%
[9]; 10 μM
  Test/Control (%) at drug concentration: 89%
[9]; 100 μM
  Test/Control (%) at drug concentration: 16%
[10]; 1 μM
  Test/Control (%) at drug concentration: 59%
[10]; 10 μM
  Test/Control (%) at drug concentration: 46%
[10]; 100 μM
  Test/Control (%) at drug concentration: 5%
[11]; 1 μM
  Test/Control (%) at drug concentration: 59%
[11]; 10 μM
  Test/Control (%) at drug concentration: 52%
[11]; 100 μM
  Test/Control (%) at drug concentration: 8%

## CO[C@H]1C[C@@H]2CC[C@@H](C)[C@@](O)(O2)C(=O)C(=O)N2CC(O)C[C@H]2C(=O)O[C@H]([C@H](C)C[C@@H]2CC[C@@H](O)[C@H](OC)C2)CC(=O)[C@H](C)/C=C(\C)[C@@H](O)CC(=O)[C@H](C)C[C@H](C)/C=C/C=C/C=C/1C (stereo partly shown) [4-hydroxyprolyl-26-desmethoxy-rapamycin]
Cell proliferation
  inhibitory activity in proliferation assays: significantly less than that of rapamycin

## CO[C@H]1C[C@@H]2CC[C@@H](C)[C@@](O)(O2)C(=O)C(=O)N2CCCC[C@H]2C(=O)O[C@H]([C@H](C)C[C@@H]2CC[C@@H](O)[C@H](OC)C2)CC(=O)[C@H](C)/C=C(\C)[C@@H](O)[C@@H](O)C(=O)[C@H](C)C[C@H](C)/C=C/C=C/C=C/1C [27-O-desmethylrapamycin]
Murine splenic B cells
  inhibition of LPS-stimulated proliferation of murine splenic B cells: decreased when compared to rapamycin
fungi; Box et al., 1995
  antifungal activity: lower than that of rapamycin
fungi
  antifungal activities: lower than that of rapamycin
Murine splenic T cells
  inhibition of ConA-stimulated proliferation of murine splenic T cells: decreased when compared to rapamycin
FKBP12 PPlase
  inhibition of FKBP12 PPlase activity: seemed to be increased

## CO[C@H]1C[C@@H]2CC[C@@H](C)[C@@](O)(O2)C(=O)C(=O)N2CCCC[C@H]2C(=O)O[C@H]([C@H](C)C[C@@H]2CC[C@@H](O)[C@H](OC)C2)CC(=O)[C@H](C)/C=C(\C)[C@@H](O)[C@@H](OC)C(=O)[C@H](C)C[C@H](C)/C=C/C=C/C=C/1C [Rapamycin, reference compound]
[5]
  Mean IC70: 9.1 µM
[6]; 10 μM
  Test/Control (%) at drug concentration: 66%
